PubChem BioAssay (NCI)
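The compound was tested at five concentrations on cells cultured in 96-well plates, with a 48-hour exposure period. GI50 marks 50% less growth. Definition used: TGI = concentration required for complete inhibition of growth.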

How the values were obtained:
Assay in all cases: NCI tumour cell line growth inhibition, 48 h
[1] = system: HL-60(TB) leukemia
[2] = system: HCC-2998 colon
[3] = system: SNB-75 CNS
[4] = system: 786-0 renal
[5] = system: SK-MEL-2 melanoma
[6] = system: COLO 205 colon
[7] = system: IGROV1 ovarian
[8] = system: OVCAR-4 ovarian
[9] = system: MDA-MB-435
[10] = system: T-47D breast

Molecule `Cc1c(C)c2cc3c(=O)c(CCl)coc3c(C)c2oc1=O` has a TGI [1] greater than 100 µM, a TGI [2] greater than 100 µM and a TGI [3] greater than 100 µM. It also gave a TGI [4] greater than 100 µM, a TGI [5] greater than 100 µM and a TGI [6] greater than 100 µM. For the same molecule, the TGI [7] was greater than 100 µM.

Molecule `Cn1cc(-c2ccc3c4ccccc4n(C)c3c2)c2ccccc21` has a TGI [1] greater than 100 µM, a TGI [2] greater than 100 µM and a TGI [3] greater than 100 µM. For the same molecule, the TGI [4] was greater than 100 µM, the TGI [5] was greater than 100 µM and the TGI [8] was greater than 100 µM. It also gave a TGI [6] greater than 100 µM and a TGI [7] greater than 100 µM.

For `C=CC[P@]1(=O)O[C@H](c2ccccc2)C(C)N1C(C)C` (stereo not given in full), the TGI [1] was greater than 100 µM, the TGI [2] was greater than 100 µM and the TGI [3] was greater than 100 µM. The TGI [4] was greater than 100 µM, the TGI [5] was greater than 100 µM and the TGI [6] was greater than 100 µM. For the same molecule, the TGI [7] was greater than 100 µM.

Molecule `Cc1nc(-n2nc(-c3ccccc3)cc2-c2ccccc2)sc1C(=O)CC(=O)C(=O)Nc1ccc(Cl)c(Cl)c1` has a TGI [1] greater than 100 µM, a TGI [2] greater than 100 µM and a TGI [3] greater than 100 µM. For the same molecule, the TGI [4] was greater than 100 µM, the TGI [5] was greater than 100 µM and the TGI [8] was greater than 100 µM. It also gave a TGI [6] greater than 100 µM and a TGI [7] greater than 100 µM.

`COc1ccc2c(c1OC)C(=O)C2` was tested, and the TGI [1] was greater than 100 µM, the TGI [3] was greater than 100 µM and the TGI [4] was greater than 100 µM. For the same molecule, the TGI [5] was greater than 100 µM, the TGI [8] was greater than 100 µM and the TGI [6] was greater than 100 µM.

Work on `N.N.N.N.N#N.N#N.[Cl-].[Os+6]` yielded a GI50 [2] greater than 100 µM, a TGI [2] greater than 100 µM and a GI50 [3] greater than 100 µM. It also gave a TGI [3] greater than 100 µM, a GI50 [4] greater than 100 µM and a TGI [4] greater than 100 µM. It also gave a GI50 [5] greater than 100 µM, a TGI [5] greater than 100 µM and a GI50 [8] greater than 100 µM. The TGI [8] was greater than 100 µM, the GI50 [6] was greater than 100 µM and the TGI [6] was greater than 100 µM. It also gave a GI50 [7] greater than 100 µM and a TGI [7] greater than 100 µM.

In the case of `CC(=O)OC1(Sc2ccccc2)CC2[C@H]3COC(C)(C)O[C@H]3CC[C@@]2(C)CC1=O` (stereo not given in full), the TGI [3] is reported as 81.4 µM, the TGI [4] is reported as greater than 100 µM and the TGI [5] is reported as greater than 100 µM. The TGI [8] was greater than 100 µM, the TGI [6] was greater than 100 µM and the TGI [7] was greater than 100 µM.

Work on `C=CCCC(O)c1cc(C)c(O)c(C)c1` (stereo not given) yielded a TGI [1] greater than 100 µM, a TGI [2] greater than 100 µM and a TGI [3] greater than 100 µM. The TGI [4] was greater than 100 µM, the TGI [5] was greater than 100 µM and the TGI [6] was greater than 100 µM. The TGI [7] was greater than 100 µM.

For `CC1=CC(=O)NP(=O)(Oc2ccc(Cl)cc2)N1` (stereo not given), the TGI [1] was greater than 100 µM, the TGI [3] was greater than 100 µM and the TGI [4] was greater than 100 µM. For the same molecule, the TGI [5] was greater than 100 µM, the TGI [8] was greater than 100 µM and the TGI [6] was greater than 100 µM. The TGI [7] was greater than 100 µM.

Molecule `O=S(=O)(F)Cc1ccccc1` has a TGI [2] greater than 100 µM, a TGI [3] greater than 100 µM and a TGI [4] greater than 100 µM. It also gave a TGI [5] greater than 100 µM, a TGI [8] greater than 100 µM and a TGI [6] greater than 100 µM. For the same molecule, the TGI [7] was greater than 100 µM and the TGI [9] was greater than 100 µM.

`COc1ccc2c(=O)c(-c3cc(OC)c(OC)cc3OC)coc2c1` showed a TGI [1] of 2.92 µM, a TGI [2] greater than 63.9 µM and a TGI [3] of 8.93 µM. The TGI [4] was greater than 100 µM, the TGI [5] was greater than 100 µM and the TGI [10] was greater than 100 µM. It also gave a TGI [8] greater than 100 µM, a TGI [6] of 42.6 µM and a TGI [7] greater than 100 µM.

Work on `COC(=O)c1csc(-c2csc(CCNC(=O)OC(C)(C)C)n2)n1` yielded a TGI [1] greater than 100 µM, a TGI [2] greater than 100 µM and a TGI [3] greater than 100 µM. It also gave a TGI [4] greater than 100 µM, a TGI [6] greater than 100 µM and a TGI [7] greater than 100 µM. The TGI [9] was greater than 100 µM.

`CN(C)CCNC(=O)c1ccc2c(c1)oc1cc3ccccc3c(=O)n12` showed a GI50 [1] of 23.8 µM, a TGI [1] of 87.9 µM and a GI50 [3] of 11.1 µM. It also gave a TGI [3] of 27.4 µM, a GI50 [4] of 18.2 µM and a TGI [4] of 33.1 µM. The GI50 [5] was 28.7 µM, the TGI [5] was 50.5 µM and the GI50 [6] was 15.6 µM. For the same molecule, the TGI [6] was 35.6 µM, the GI50 [7] was 10.6 µM and the TGI [7] was 26.4 µM. The GI50 [9] was 15.1 µM and the TGI [9] was 32.7 µM.

`O=CNC(Cc1cnc[nH]1)C(=O)O` (stereo not given) was tested, and the TGI [1] was greater than 100 µM, the TGI [3] was greater than 100 µM and the TGI [4] was greater than 100 µM. For the same molecule, the TGI [5] was greater than 100 µM, the TGI [10] was greater than 100 µM and the TGI [8] was greater than 100 µM. The TGI [6] was greater than 100 µM, the TGI [7] was greater than 100 µM and the TGI [9] was greater than 100 µM.

Molecule `S=C1SCC2CCCN12` (stereo not given) has a TGI [1] greater than 100 µM, a TGI [2] greater than 100 µM and a TGI [3] greater than 100 µM. It also gave a TGI [4] greater than 100 µM, a TGI [5] greater than 100 µM and a TGI [8] greater than 100 µM. It also gave a TGI [6] greater than 100 µM and a TGI [7] greater than 100 µM.

In the case of `CC(=O)/C=C1\CC(=O)N(C)c2ccccc2N1`, the TGI [2] is reported as greater than 100 µM, the TGI [3] is reported as 0.953 µM and the TGI [4] is reported as greater than 100 µM. It also gave a TGI [5] greater than 100 µM, a TGI [8] greater than 100 µM and a TGI [6] greater than 100 µM. For the same molecule, the TGI [7] was greater than 100 µM.

Molecule `O=C(O)c1cccc([As]=[As]c2cccc(C(=O)O)c2)c1` (stereo not given) has a TGI [2] greater than 100 µM, a TGI [3] greater than 100 µM and a TGI [4] of 71.1 µM. The TGI [5] was 55.6 µM, the TGI [10] was greater than 100 µM and the TGI [8] was greater than 100 µM. For the same molecule, the TGI [6] was greater than 100 µM, the TGI [7] was greater than 100 µM and the TGI [9] was greater than 100 µM.

`COc1ccc(/C=C\c2cc(OC)c(OC)c(OC)c2)cc1NC(=O)/C=C/c1ccc(OC)c(OC)c1` showed a GI50 [1] of 2.54 µM, a TGI [1] of 8.85 µM and a GI50 [2] of 2.72 µM. The TGI [2] was greater than 100 µM, the GI50 [4] was 4.79 µM and the TGI [4] was greater than 100 µM. For the same molecule, the GI50 [5] was 5.51 µM, the TGI [5] was greater than 100 µM and the GI50 [10] was 5.98 µM. The TGI [10] was greater than 100 µM, the GI50 [8] was 8.01 µM and the TGI [8] was greater than 100 µM. For the same molecule, the GI50 [6] was 2.05 µM, the TGI [6] was 10.9 µM and the GI50 [7] was 18.8 µM. It also gave a TGI [7] greater than 100 µM, a GI50 [9] of 0.348 µM and a TGI [9] of 1.71 µM.

For `O=C1NC(c2ccccc2)(c2ccccc2)C(=O)N1CCCCCCN1C(=O)NC(c2ccccc2)(c2ccccc2)C1=O`, the TGI [1] was greater than 100 µM, the TGI [2] was greater than 100 µM and the TGI [3] was 19.6 µM. The TGI [4] was 49.3 µM, the TGI [5] was 66.2 µM and the TGI [8] was 27.6 µM. The TGI [6] was greater than 100 µM and the TGI [7] was greater than 100 µM.

`O=[N+]([O-])c1ccc(Sc2cccc[n+]2[O-])c2nonc12` gave a GI50 [2] of 4.58 µM, a TGI [2] of 16.9 µM and a GI50 [3] of 11.1 µM. It also gave a TGI [3] of 39.6 µM, a GI50 [4] of 9.18 µM and a TGI [4] of 22.3 µM. The GI50 [5] was 13.5 µM, the TGI [5] was 36.3 µM and the GI50 [10] was 1.69 µM. The TGI [10] was 6.5 µM, the GI50 [8] was 3.61 µM and the TGI [8] was 13.6 µM. The GI50 [6] was 0.949 µM, the TGI [6] was 2.51 µM and the GI50 [7] was 3.21 µM. It also gave a TGI [7] of 14.5 µM, a GI50 [9] of 6.24 µM and a TGI [9] of 20.1 µM.

`COC1CCCc2c(OC(C)=O)ccc(OC(C)=O)c21` (stereo not given) gave a TGI [1] greater than 100 µM, a TGI [2] greater than 100 µM and a TGI [3] greater than 100 µM. It also gave a TGI [4] greater than 100 µM, a TGI [5] greater than 100 µM and a TGI [8] greater than 100 µM. The TGI [7] was greater than 100 µM.

Work on `COc1ccccc1/C=C1\C(=O)N(C(=O)Cc2ccccc2)N=C1C` yielded a TGI [1] greater than 100 µM, a TGI [2] greater than 100 µM and a TGI [3] greater than 100 µM. The TGI [4] was greater than 100 µM, the TGI [5] was greater than 100 µM and the TGI [8] was greater than 100 µM. It also gave a TGI [6] greater than 100 µM.

`CNc1c2ccccc2nc2occ(Cl)c12` showed a GI50 [2] of 36 µM, a TGI [2] greater than 100 µM and a GI50 [4] of 34.6 µM. The TGI [4] was greater than 100 µM, the GI50 [5] was greater than 100 µM and the TGI [5] was greater than 100 µM. The GI50 [10] was 66.1 µM, the TGI [10] was greater than 100 µM and the GI50 [8] was 29.4 µM. The TGI [8] was greater than 100 µM, the GI50 [6] was 30.6 µM and the TGI [6] was greater than 100 µM. For the same molecule, the GI50 [7] was 50.5 µM, the TGI [7] was greater than 100 µM and the GI50 [9] was 17.2 µM. For the same molecule, the TGI [9] was 79.9 µM.
